Experiments:
Type in all cases: cell-based
Conditions in all cases: HEK-293T; 1 μM inhibitor, HEK293T cells
[1] = molecular target: TLK1 (Homo sapiens, UniProt Q9UKI8)
Method in brief: (§1)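 Using transiently transfected HEK293T cells, the inhibitor (1 μM) is tested for displacing Tracer K10 from each expressed kinase after 20 h expression. Luminescence at donor and acceptor wavelengths yields occupancy.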

[2] = molecular target: WEE1 (Homo sapiens, UniProt P30291)
Method in brief: as §1

[3] = molecular target: MKNK2 (Homo sapiens, UniProt Q9HBH9)
Method in brief: as §1

[4] = molecular target: RIPK2 (Homo sapiens, UniProt O43353)
Method in brief: as §1

[5] = molecular target: ULK2 (Homo sapiens, UniProt Q8IYT8)
Method in brief: as §1

[6] = molecular target: RPS6KA3 (Homo sapiens, UniProt P51812)
Method in brief: as §1

[7] = molecular target: T1, RIPK1 (Homo sapiens, UniProt Q13546)
T1 construct: full-length LIMK1/2, RIPK1, BTK, and LRRK2 cloned in a frame in a NanoLuc-vector (Promega); host or cells: HEK293T
T1 sequence (Q13546 1-671): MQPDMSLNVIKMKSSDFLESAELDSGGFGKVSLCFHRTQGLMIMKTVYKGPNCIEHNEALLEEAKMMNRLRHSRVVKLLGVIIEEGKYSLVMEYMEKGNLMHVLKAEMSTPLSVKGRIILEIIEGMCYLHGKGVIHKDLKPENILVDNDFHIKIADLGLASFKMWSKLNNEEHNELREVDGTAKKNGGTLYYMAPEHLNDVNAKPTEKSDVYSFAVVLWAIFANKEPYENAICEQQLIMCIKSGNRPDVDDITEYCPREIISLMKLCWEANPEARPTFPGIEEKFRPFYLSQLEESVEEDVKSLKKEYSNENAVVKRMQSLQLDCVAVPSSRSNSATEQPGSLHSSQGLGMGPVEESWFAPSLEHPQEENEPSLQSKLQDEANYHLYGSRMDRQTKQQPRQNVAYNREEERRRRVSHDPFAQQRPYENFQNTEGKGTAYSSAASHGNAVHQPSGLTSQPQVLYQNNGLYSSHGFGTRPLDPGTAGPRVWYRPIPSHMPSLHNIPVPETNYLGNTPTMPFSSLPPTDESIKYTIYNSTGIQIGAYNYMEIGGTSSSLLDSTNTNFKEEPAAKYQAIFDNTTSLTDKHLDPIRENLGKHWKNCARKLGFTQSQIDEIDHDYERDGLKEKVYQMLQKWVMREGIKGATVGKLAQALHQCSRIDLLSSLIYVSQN
Method in brief: as §1

[8] = molecular target: EPHB1 (Homo sapiens, UniProt P54762)
Method in brief: as §1

[9] = molecular target: NTRK1 (Homo sapiens, UniProt P04629)
Method in brief: as §1

[10] = molecular target: IKBKE (Homo sapiens, UniProt Q14164)
Method in brief: as §1

[11] = molecular target: AAK1 (Homo sapiens, UniProt Q2M2I8)
Method in brief: as §1

[12] = molecular target: STK4 (Homo sapiens, UniProt Q13043)
Method in brief: as §1

[13] = molecular target: MAP3K4 (Homo sapiens, UniProt Q9Y6R4)
Method in brief: as §1

[14] = molecular target: ITK (Homo sapiens, UniProt Q08881)
Method in brief: as §1

[15] = molecular target: RET (Homo sapiens, UniProt P07949)
Method in brief: as §1

[16] = molecular target: TNK1 (Homo sapiens, UniProt Q13470)
Method in brief: as §1

[17] = molecular target: CAMK2D (Homo sapiens, UniProt Q13557)
Method in brief: as §1

[18] = molecular target: MAPK6 (Homo sapiens, UniProt Q16659)
Method in brief: as §1

[19] = molecular target: CDK5 (Homo sapiens, UniProt Q00535)
Method in brief: as §1

[20] = molecular target: CDK4 (Homo sapiens, UniProt P11802)
Method in brief: as §1

[21] = molecular target: BMP2K (Homo sapiens, UniProt Q9NSY1)
Method in brief: as §1

[22] = molecular target: INSR (Homo sapiens, UniProt P06213)
Method in brief: as §1

[23] = molecular target: LATS2 (Homo sapiens, UniProt Q9NRM7)
Method in brief: as §1

[24] = molecular target: PKMYT1 (Homo sapiens, UniProt Q99640)
Method in brief: as §1

[25] = molecular target: STK38 (Homo sapiens, UniProt Q15208)
Method in brief: as §1

[26] = molecular target: RPS6KA4 (Homo sapiens, UniProt O75676)
Method in brief: as §1

[27] = molecular target: ABL2 (Homo sapiens, UniProt P42684)
Method in brief: as §1

Chain of ABL2 (P42684 whole entry): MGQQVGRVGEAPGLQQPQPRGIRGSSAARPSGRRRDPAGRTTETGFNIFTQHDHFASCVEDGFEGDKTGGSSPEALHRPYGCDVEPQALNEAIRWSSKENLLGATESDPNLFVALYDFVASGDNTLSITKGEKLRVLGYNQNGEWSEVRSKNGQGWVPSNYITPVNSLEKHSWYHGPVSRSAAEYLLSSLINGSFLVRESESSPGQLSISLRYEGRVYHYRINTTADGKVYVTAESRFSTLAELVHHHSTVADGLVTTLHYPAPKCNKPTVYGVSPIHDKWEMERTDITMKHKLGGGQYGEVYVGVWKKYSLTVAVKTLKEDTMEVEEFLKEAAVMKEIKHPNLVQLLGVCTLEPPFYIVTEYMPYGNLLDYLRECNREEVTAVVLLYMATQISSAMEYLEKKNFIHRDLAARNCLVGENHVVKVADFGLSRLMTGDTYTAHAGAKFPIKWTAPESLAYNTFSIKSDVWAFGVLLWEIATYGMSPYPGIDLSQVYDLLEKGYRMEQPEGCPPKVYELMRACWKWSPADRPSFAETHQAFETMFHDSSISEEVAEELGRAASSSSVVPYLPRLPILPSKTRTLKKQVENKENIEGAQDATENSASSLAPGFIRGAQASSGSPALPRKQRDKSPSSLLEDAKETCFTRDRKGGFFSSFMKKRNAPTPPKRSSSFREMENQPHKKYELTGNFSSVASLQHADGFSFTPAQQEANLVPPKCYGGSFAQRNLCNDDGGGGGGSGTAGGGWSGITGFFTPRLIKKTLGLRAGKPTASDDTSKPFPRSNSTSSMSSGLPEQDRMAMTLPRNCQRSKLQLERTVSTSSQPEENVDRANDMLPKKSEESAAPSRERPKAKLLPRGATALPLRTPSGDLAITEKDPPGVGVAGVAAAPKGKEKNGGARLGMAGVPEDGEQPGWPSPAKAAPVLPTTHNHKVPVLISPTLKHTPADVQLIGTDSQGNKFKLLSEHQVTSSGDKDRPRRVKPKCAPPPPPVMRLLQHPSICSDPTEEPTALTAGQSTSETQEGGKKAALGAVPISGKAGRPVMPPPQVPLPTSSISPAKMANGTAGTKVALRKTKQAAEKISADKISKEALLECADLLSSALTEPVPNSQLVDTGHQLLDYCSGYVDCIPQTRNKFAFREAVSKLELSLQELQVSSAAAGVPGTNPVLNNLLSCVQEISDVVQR
Chain of CAMK2D (Q13557 whole entry): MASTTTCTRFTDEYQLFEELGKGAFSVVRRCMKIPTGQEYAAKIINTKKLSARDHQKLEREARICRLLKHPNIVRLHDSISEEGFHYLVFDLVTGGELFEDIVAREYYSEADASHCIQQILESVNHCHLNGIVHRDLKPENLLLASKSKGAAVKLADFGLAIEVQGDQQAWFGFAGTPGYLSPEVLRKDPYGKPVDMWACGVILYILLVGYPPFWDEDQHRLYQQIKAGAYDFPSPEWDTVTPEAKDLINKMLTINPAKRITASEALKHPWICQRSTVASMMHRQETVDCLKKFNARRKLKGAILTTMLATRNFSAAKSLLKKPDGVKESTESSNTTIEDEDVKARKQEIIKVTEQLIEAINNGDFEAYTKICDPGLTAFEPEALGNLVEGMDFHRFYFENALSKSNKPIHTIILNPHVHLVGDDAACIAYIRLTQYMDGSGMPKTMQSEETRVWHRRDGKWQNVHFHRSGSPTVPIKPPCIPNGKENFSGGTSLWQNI
Chain of RIPK2 (O43353 whole entry): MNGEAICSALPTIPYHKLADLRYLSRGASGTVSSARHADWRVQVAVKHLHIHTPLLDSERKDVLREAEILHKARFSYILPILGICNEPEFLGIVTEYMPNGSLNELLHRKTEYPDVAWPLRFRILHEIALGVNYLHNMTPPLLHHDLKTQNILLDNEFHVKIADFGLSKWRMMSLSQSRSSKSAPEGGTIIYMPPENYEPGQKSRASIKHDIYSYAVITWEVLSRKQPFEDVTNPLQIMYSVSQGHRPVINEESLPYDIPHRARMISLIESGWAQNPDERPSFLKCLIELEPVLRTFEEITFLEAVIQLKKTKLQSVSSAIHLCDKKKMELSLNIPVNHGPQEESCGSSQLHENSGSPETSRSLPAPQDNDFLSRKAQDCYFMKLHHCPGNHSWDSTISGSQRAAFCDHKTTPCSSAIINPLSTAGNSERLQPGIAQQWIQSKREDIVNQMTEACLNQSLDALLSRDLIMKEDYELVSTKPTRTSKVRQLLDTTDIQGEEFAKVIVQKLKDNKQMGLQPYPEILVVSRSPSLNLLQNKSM
Chain of AAK1 (Q2M2I8 whole entry): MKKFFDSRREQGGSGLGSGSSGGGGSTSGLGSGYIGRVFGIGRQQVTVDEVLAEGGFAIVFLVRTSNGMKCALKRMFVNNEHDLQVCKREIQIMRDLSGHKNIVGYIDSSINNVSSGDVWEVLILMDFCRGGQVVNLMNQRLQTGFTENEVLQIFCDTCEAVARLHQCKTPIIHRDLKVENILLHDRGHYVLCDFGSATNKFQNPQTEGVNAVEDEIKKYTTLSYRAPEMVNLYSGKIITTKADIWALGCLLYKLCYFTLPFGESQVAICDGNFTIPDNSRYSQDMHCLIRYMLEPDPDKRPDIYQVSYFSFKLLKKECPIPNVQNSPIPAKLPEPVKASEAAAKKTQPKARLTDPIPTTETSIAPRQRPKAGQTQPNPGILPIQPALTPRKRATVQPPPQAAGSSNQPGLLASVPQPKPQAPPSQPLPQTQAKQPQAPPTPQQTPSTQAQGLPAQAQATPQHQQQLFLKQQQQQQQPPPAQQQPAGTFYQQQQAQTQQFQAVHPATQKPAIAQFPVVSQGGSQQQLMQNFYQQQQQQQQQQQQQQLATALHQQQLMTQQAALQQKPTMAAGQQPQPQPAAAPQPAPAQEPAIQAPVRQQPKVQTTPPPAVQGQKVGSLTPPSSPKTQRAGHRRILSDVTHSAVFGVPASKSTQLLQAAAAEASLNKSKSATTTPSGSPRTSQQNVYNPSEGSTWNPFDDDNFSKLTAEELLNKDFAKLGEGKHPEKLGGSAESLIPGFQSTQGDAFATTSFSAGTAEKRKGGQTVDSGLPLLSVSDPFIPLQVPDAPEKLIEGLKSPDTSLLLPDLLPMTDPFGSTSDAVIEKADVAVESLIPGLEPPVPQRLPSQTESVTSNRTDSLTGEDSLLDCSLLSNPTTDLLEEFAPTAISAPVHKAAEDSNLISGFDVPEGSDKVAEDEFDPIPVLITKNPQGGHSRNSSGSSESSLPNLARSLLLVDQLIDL
Chain of RPS6KA3 (P51812 whole entry): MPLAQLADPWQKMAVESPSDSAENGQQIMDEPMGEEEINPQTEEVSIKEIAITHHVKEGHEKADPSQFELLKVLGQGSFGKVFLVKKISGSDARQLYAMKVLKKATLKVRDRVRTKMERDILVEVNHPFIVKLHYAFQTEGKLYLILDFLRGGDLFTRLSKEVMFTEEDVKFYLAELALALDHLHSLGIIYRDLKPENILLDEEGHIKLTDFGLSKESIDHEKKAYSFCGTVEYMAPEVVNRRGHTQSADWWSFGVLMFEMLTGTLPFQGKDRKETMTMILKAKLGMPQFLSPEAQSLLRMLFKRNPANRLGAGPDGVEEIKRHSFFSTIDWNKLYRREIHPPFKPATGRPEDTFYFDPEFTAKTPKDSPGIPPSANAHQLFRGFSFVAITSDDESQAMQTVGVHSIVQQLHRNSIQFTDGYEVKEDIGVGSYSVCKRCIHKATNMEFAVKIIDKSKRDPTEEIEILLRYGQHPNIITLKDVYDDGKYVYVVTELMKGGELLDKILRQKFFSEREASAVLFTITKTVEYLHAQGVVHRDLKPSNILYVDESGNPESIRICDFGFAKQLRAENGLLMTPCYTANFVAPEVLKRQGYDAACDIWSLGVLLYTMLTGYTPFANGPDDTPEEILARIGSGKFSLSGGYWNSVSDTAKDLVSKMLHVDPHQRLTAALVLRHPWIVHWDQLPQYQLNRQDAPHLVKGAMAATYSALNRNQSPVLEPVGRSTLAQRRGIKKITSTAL
Chain of EPHB1 (P54762 18-984): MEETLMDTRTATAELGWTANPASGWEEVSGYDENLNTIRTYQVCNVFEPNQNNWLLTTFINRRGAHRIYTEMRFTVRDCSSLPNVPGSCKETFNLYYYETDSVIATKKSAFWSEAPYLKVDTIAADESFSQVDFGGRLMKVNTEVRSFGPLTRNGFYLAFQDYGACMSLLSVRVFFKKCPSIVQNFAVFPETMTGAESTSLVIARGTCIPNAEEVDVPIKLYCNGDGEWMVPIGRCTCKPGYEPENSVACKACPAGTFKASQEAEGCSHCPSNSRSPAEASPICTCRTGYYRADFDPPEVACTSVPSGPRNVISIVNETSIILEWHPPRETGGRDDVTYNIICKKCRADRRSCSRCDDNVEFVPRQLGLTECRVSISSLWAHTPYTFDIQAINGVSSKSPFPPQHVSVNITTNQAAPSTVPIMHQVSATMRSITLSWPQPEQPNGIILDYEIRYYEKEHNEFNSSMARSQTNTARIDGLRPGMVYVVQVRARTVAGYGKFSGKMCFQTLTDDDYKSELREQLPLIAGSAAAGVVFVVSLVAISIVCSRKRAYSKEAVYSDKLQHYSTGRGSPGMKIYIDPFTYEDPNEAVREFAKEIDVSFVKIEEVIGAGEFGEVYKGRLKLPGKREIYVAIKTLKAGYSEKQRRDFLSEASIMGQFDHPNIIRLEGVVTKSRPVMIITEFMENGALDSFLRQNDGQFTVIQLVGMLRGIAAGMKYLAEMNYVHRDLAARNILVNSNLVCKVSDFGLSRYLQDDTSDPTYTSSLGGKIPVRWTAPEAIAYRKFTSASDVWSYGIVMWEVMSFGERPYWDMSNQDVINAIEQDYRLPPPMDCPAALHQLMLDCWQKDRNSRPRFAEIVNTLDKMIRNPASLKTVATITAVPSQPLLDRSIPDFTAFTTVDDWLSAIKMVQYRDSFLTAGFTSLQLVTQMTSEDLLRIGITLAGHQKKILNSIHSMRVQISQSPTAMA

## CN1C(=O)[C@@H](N2CCc3c(nn(Cc4ccccc4)c3C(N)=O)C2=O)COc2cc(Cl)ccc21 [Compound 10, (S)-2-benzyl-6-(8-chloro-5-methyl-4-oxo-2,3,4,5-tetrahydrobenzo[b][1,4]oxazepin-3-yl)-7-oxo-4,5,6,7-tetrahydro-2H-pyrazolo[3,4-c]pyridine-3-carboxamide]
[1]
  receptor occupancy at 1 µM: 26.6%
[2]
  receptor occupancy at 1 µM: -7.33%
[3]
  receptor occupancy at 1 µM: 2.69%
[4]
  receptor occupancy at 1 µM: -1.2%
[5]
  receptor occupancy at 1 µM: 2.12%
[6]
  receptor occupancy at 1 µM: -0.166%
[7]
  receptor occupancy at 1 µM: 78.4%
[8]
  receptor occupancy at 1 µM: 0.755%
[9]
  receptor occupancy at 1 µM: 0.821%
[10]
  receptor occupancy at 1 µM: 6.88%
[11]
  receptor occupancy at 1 µM: 0.814%
[12]
  receptor occupancy at 1 µM: -6.3%
[13]
  receptor occupancy at 1 µM: 5.69%
[14]
  receptor occupancy at 1 µM: 2.24%
[15]
  receptor occupancy at 1 µM: -7.79%
[16]
  receptor occupancy at 1 µM: -2.13%
[17]
  receptor occupancy at 1 µM: 5.75%
[18]
  receptor occupancy at 1 µM: -8.43%
[19]
  receptor occupancy at 1 µM: -9.43%
[20]
  receptor occupancy at 1 µM: -9.98%
[21]
  receptor occupancy at 1 µM: -6.67%
[22]
  receptor occupancy at 1 µM: 4.94%
[23]
  receptor occupancy at 1 µM: 8.35%
[24]
  receptor occupancy at 1 µM: -7.45%
[25]
  receptor occupancy at 1 µM: 4.93%
[26]
  receptor occupancy at 1 µM: 7.5%
[27]
  receptor occupancy at 1 µM: 6.33%
